Assay [1] deals with T1, N-glycosylase/DNA lyase (Homo sapiens, UniProt O15527). Particulars: 0.08 to 8 uM.
Description: Inhibition of human OGG1 at 0.08 to 8 uM incubated for 30 mins using 8-oxo-Gua-containing substrate by PAGE-based cleavage assay
Assay [2] addresses T1, N-glycosylase/DNA lyase. Put plainly: Inhibition of human OGG1 catalytic activity assessed as reduction trapping of substrates at 10 uM using AP site containing substrate in presence of sodium cyno-borohydride by gel electrophoresis method.
The nature of assay [3]: Selectivity index, ratio of IC50 for inhibition of Escherichia coli FPG using 8-oxo-Gua substrate incubated for 10 mins by TAMRA fluorescence-based assay to IC50 for inhibition of human OGG1 incubated for 30 mins using 8-oxo-Gua-containing substrate by TAMRA fluorescence-based assay.
Assay [4] addresses T2, Endonuclease 8-like 1 (Homo sapiens, UniProt Q96FI4). As to the kind of experiment: Inhibition of NEIL1 (unknown origin) assessed as remaining enzyme activity at 50 uM using Sp/Gh substrate incubated for 40 mins by TAMRA fluorescence-based assay.
The target of assay [5] is T1, N-glycosylase/DNA lyase. As to the kind of experiment: Inhibition of human OGG1 assessed as reduction in free Inhibition of human OGG1 assessed as reduction in free FapyGua release using gamma-irradiated calf thymus DNA substrate incubated for 1 hr by GC-MS/MS assay.
For assay [6], the target named is T1, N-glycosylase/DNA lyase. Put plainly: Inhibition of human OGG1 assessed as reduction in AP lyase activity using AP-containing substrate.
In assay [7] the target is T3, Endonuclease III-like protein 1 (Homo sapiens) (UniProt P78549).
T3 sequence (whole entry): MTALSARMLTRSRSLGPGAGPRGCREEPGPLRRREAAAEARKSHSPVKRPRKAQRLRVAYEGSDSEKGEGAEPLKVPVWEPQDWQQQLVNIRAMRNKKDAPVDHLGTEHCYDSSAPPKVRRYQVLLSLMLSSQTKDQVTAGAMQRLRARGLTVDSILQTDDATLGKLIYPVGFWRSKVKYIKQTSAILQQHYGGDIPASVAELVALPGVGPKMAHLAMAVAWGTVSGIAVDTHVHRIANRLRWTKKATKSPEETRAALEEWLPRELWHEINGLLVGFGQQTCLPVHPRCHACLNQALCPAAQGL
As to the kind of experiment: Inhibition of NTH1 (unknown origin) assessed as remaining enzyme activity at 50 uM incubated for 40 mins by TAMRA fluorescence-based assay.

In assay [8] the target is T1, N-glycosylase/DNA lyase. Put plainly: Inhibition of human OGG1 assessed as protection against NaOH-mediated strand cleavage using AP-containing substrate. Details: scale not given: the % may be the effect or the level left.
For assay [9], the target named is T1, N-glycosylase/DNA lyase. As to the kind of experiment: Inhibition of human OGG1 assessed as reduction in free 8-oxo-Gua release using gamma-irradiated calf thymus DNA substrate incubated for 1 hr by GC-MS/MS assay.
In assay [10] the target is T1, N-glycosylase/DNA lyase. As to the kind of experiment: Inhibition of human OGG1 catalytic activity assessed as reduction trapping of substrates at 10 uM using 8-oxo-Gua substrate in presence of sodium cyno-borohydride by gel electrophoresis method.
For assay [11], the species on record is Homo sapiens. Put plainly: Selectivity index, ratio of IC50 for inhibition of NEIL1 (unknown origin) using Sp/Gh substrate incubated for 40 mins by TAMRA fluorescence-based assay to IC50 for inhibition of human OGG1 incubated for 30 mins using 8-oxo-Gua-containing substrate by TAMRA fluorescence-based assay.
The species entered for assay [12] is Homo sapiens. As to the kind of experiment: Selectivity index, ratio of IC50 for inhibition of NTH1 (unknown origin) incubated for 40 mins by TAMRA fluorescence-based assay to IC50 for inhibition of human OGG1 incubated for 30 mins using 8-oxo-Gua-containing substrate by TAMRA fluorescence-based assay.
Assay [13] has as its target T1, N-glycosylase/DNA lyase. As to the kind of experiment: Inhibition of human OGG1 binding to 8-oxo-Gua substrate using compound pre-incubated with enzyme for 5 to 10 mins before substrate addition and further incubated for 5 mins by native gel electrophoresis based by gel-shift assay.
For assay [14], the target named is T4, Formamidopyrimidine-DNA glycosylase (Escherichia coli (strain K12)) (UniProt P05523).
T4 sequence (whole entry): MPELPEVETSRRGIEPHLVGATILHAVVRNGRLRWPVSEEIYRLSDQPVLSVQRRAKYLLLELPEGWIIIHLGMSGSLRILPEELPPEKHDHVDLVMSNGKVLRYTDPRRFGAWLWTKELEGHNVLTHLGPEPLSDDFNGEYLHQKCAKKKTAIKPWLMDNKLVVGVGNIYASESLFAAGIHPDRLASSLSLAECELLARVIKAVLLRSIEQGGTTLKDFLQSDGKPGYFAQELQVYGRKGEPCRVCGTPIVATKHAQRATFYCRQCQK
As to the kind of experiment: Inhibition of Escherichia coli FPG assessed as reduction in enzyme-mediated incision using compound pre-incubated with AP-site containing DNA substrate for 30 mins at 37 degC followed by enzyme addition.

Assay [15] in a line: Binding affinity to duplex DNA (unknown origin) assessed as induction of DNA intercalation at 50 uM incubated for 30 mins by gel electrophoresis.
In assay [16] the target is T3, Endonuclease III-like protein 1 (Homo sapiens). As to the kind of experiment: Inhibition of NTH1 (unknown origin) assessed as effect on DNA lesions per 10^6 DNA bases using thymine glycol substrate incubated for 1 hr by GC-MS/MS assay.
The target of assay [17] is T2, Endonuclease 8-like 1. As to the kind of experiment: Inhibition of NEIL1 (unknown origin) assessed as effect on DNA lesions per 10^6 DNA bases using FapyAde substrate incubated for 1 hr by GC-MS/MS assay.
Assay [18] has as its target T3, Endonuclease III-like protein 1 (Homo sapiens). As to the kind of experiment: Inhibition of NTH1 (unknown origin) assessed as effect on DNA lesions per 10^6 DNA bases using FapyGua substrate incubated for 1 hr by GC-MS/MS assay.
The target of assay [19] is T1, N-glycosylase/DNA lyase. As to the kind of experiment: Inhibition of human OGG1 catalytic activity assessed as reduction trapping of substrates using AP site containing substrate by measuring concentration of compound needed to reduce borohydride trapping by 50% in presence of sodium cyno-borohydride by gel electrophoresis method.
Assay [20] deals with T4, Formamidopyrimidine-DNA glycosylase (Escherichia coli (strain K12)). As to the kind of experiment: Inhibition of Escherichia coli FPG assessed as remaining enzyme activity at 50 uM using 8-oxo-Gua substrate incubated for 10 mins by TAMRA fluorescence-based assay.
The target of assay [21] is T2, Endonuclease 8-like 1. As to the kind of experiment: Inhibition of NEIL1 (unknown origin) using Sp/Gh substrate incubated for 40 mins by TAMRA fluorescence-based assay.
Assay [22] concerns the target T4, Formamidopyrimidine-DNA glycosylase (Escherichia coli (strain K12)). As to the kind of experiment: Inhibition of Escherichia coli FPG assessed as reduction in enzyme-mediated incision using compound pre-incubated with 8-oxo-Gua substrate for 30 mins at 37 degC followed by enzyme addition.
Assay [23] addresses T5, Endonuclease III-like protein 1 (Homo sapiens, UniProt P78549).
T5 sequence (P78549 whole entry): T3 sequence (whole entry)
Put plainly: Inhibition of NTH1 (unknown origin) incubated for 40 mins by TAMRA fluorescence-based assay.

Assay [24] has as its target T3, Endonuclease III-like protein 1 (Homo sapiens). As to the kind of experiment: Inhibition of NTH1 (unknown origin) assessed as effect on DNA lesions per 10^6 DNA bases using 5-hydroxycytosine substrate incubated for 1 hr by GC-MS/MS assay.
Assay [25] addresses T6, Formamidopyrimidine-DNA glycosylase (Escherichia coli (strain K12), UniProt P05523).
T6 sequence (P05523 whole entry): T4 sequence (whole entry)
As to the kind of experiment: Inhibition of Escherichia coli FPG using 8-oxo-Gua substrate incubated for 10 mins by TAMRA fluorescence-based assay.

For assay [26], the target named is T1, N-glycosylase/DNA lyase. As to the kind of experiment: Inhibition of human OGG1 catalytic activity assessed as reduction trapping of substrates using 8-oxo-Gua substrate by measuring concentration of compound needed to reduce borohydride trapping by 50% in presence of sodium cyno-borohydride by gel electrophoresis method.
The target of assay [27] is T2, Endonuclease 8-like 1. Put plainly: Inhibition of NEIL1 (unknown origin) assessed as effect on DNA lesions per 10^6 DNA bases using FapyGua substrate incubated for 1 hr by GC-MS/MS assay.
In assay [28] the target is T3, Endonuclease III-like protein 1 (Homo sapiens). As to the kind of experiment: Inhibition of NTH1 (unknown origin) assessed as effect on DNA lesions per 10^6 DNA bases using 5-OH-5-MeHyd substrate incubated for 1 hr by GC-MS/MS assay.
For assay [29], the target named is T2, Endonuclease 8-like 1. Put plainly: Inhibition of NEIL1 (unknown origin) assessed as effect on DNA lesions per 10^6 DNA bases using 5-OH-5-MeHyd substrate incubated for 1 hr by GC-MS/MS assay.
Assay [30] has as its target T3, Endonuclease III-like protein 1 (Homo sapiens). As to the kind of experiment: Inhibition of NTH1 (unknown origin) assessed as effect on DNA lesions per 10^6 DNA bases using FapyAde substrate incubated for 1 hr by GC-MS/MS assay.

Molecules are shown by their SMILES. The source made the active and inactive calls. No cut-off for these calls is given here.

T2 sequence (Q96FI4 whole entry): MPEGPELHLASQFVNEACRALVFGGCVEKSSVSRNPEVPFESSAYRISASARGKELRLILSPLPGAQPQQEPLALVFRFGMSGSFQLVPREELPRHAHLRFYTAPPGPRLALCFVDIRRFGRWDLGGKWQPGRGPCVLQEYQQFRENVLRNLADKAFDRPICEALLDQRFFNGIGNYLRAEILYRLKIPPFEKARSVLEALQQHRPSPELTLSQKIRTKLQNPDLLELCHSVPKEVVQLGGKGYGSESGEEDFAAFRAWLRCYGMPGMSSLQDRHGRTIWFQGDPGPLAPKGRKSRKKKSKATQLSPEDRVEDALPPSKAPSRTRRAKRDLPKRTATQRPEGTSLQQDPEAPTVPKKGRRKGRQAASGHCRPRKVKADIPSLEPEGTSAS
T1 sequence (O15527 whole entry): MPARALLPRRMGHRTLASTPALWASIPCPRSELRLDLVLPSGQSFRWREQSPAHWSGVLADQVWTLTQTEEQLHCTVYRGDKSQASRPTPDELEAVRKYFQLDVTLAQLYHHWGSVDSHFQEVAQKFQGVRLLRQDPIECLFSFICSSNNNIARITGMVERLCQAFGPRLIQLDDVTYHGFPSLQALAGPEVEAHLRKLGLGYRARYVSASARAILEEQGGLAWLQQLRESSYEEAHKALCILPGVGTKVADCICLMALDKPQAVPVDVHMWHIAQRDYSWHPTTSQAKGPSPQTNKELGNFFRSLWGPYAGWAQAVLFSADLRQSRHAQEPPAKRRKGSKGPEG

In the case of `NNC(=O)c1ccncc1`, the inhibition result at N-glycosylase/DNA lyase [1], on N-glycosylase/DNA lyase [5], on N-glycosylase/DNA lyase [6] and at N-glycosylase/DNA lyase [9] was “inactive” in each case. The inhibition result at N-glycosylase/DNA lyase [2] and at N-glycosylase/DNA lyase [10] was “Active” in each case. In addition, the Ratio IC50 (in [3]; in the assay listed under Homo sapiens [11]; in the assay filed under Homo sapiens [12]) was above 200 throughout. In addition, the Activity came to 80.6% at Endonuclease 8-like 1 [4], 98% in assay [7] and 1% at N-glycosylase/DNA lyase [8].

Turning to `NNC(=O)c1sc2cccc(Cl)c2c1Cl`, the inhibition result (at N-glycosylase/DNA lyase [13]; in assay [14]; in [16]; at Endonuclease 8-like 1 [17]; in assay [18]; in [22]) was “inactive” each time. Moreover, the inhibition result (in assay [24]; at Endonuclease 8-like 1 [27]; in assay [28]; at Endonuclease 8-like 1 [29]; in assay [30]) was “inactive” in each case. Moreover, the inhibition entry on N-glycosylase/DNA lyase [2], at N-glycosylase/DNA lyase [5], on N-glycosylase/DNA lyase [6], on N-glycosylase/DNA lyase [9] and at N-glycosylase/DNA lyase [10] was “Active” each time. Also, the outcome in [15] was inactive. Also, the Ratio IC50 (in [3]; in the assay listed under Homo sapiens [11]; in the assay listed under Homo sapiens [12]) was above 200 throughout. For the same compound, the Activity at Endonuclease 8-like 1 [4] turned out to be 84.6%; in assay [20], 91.7%; in assay [7] it was 63.1%; at N-glycosylase/DNA lyase [8], 2%. The IC50 at N-glycosylase/DNA lyase [19] was 0.74 µM; on Endonuclease 8-like 1 [21], above 50 µM; in assay [23] it was above 50 µM; in assay [25], above 50 µM; on N-glycosylase/DNA lyase [26], 1.03 µM.
